In test [1] the test system is HCT116-MTAP-KO. The experiment in a line: Cell killing in HCT116 isogenic pair (Cell Titer-Glo viability), MTAP knock-out cells. Particulars: Homo sapiens, HCT-116, 144 h, 6 days incubation, 0-10 μM, * = more than 50% viability inhibition at tested concentration without a full curve. It counts as cell-based, human. In a few lines:
(§1)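 Viability was read by CellTiter-Glo luminescence after 6 days of compound treatment (0–10 μM final, 37° C, 5% CO2), and IC50 values were fitted. The isogenic HCT116 pair, MTAP-KO clone versus mock-KO MTAP-wildtype, was grown in RPMI 1640 plus 10% FBS and seeded the day before.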
(In general: Cellular ATP, detected with luciferase, serves as a proxy for viable cell number.)

Test [2] deals with HCT116-mock-RNA-KO. The experiment in a line: Cell killing in HCT116 isogenic pair (Cell Titer-Glo viability), mock knock-out cells with MTAP wildtype genotype. The test is classed as cell-based, human. Particulars: Homo sapiens, HCT-116, 144 h, 6 days incubation, 0-10 μM. A digest of the protocol:
as §1

Where only a bound is given, the exact number is not on record here.

As usually defined, the IC50 is the concentration that gives 50% inhibition. The low end stands for greater potency, the high end for weaker potency. As to `C[C@@H](c1cnccn1)N(Cc1ncc(Br)cc1F)C(=O)c1cc2nc(N)c3c(c2[nH]1)COC3` [Example 61, (S)-5-amino-N-((5-bromo-3-fluoropyridin-2-yl)methyl)-N-(1-(pyrazin-2-yl)ethyl)-6,8-dihydro-1H-furo[3,4-d]pyrrolo[3,2-b]pyridine-2-carboxamide], the half-maximal inhibitory concentration (IC50) is 808 nM in test [1] and > 10000 nM in test [2].

As for `C[C@H](c1cnccn1)N(Cc1ncc(Br)cc1F)C(=O)c1cc2nc(N)c3c(c2[nH]1)COC3` [Example 62, (R)-5-amino-N-((5-bromo-3-fluoropyridin-2-yl)methyl)-N-(1-(pyrazin-2-yl)ethyl)-6,8-dihydro-1H-furo[3,4-d]pyrrolo[3,2-b]pyridine-2-carboxamide], the IC50 in test [1] was 17 nM; in test [2], 2080 nM.

As to `CN(C(=O)c1cc2nc(N)c3c(c2[nH]1)COC3)[C@@H]1COCc2cc(Br)ccc21` [Example 63, (S)-5-amino-N-(7-bromoisochroman-4-yl)-N-methyl-6,8-dihydro-1H-furo[3,4-d]pyrrolo[3,2-b]pyridine-2-carboxamide], the results for the IC50 in test [1] and in test [2] were 22 nM and 2500 nM, respectively.

For the compound `CN(C(=O)c1cc2nc(N)c3c(c2[nH]1)COC3)[C@H]1COCc2cc(Br)ccc21` [Example 64, (R)-5-amino-N-(7-bromoisochroman-4-yl)-N-methyl-6,8-dihydro-1H-furo[3,4-d]pyrrolo[3,2-b]pyridine-2-carboxamide], the figures for the half-maximal inhibitory concentration (IC50) in test [1] and in test [2] were 362 nM and > 10000 nM, respectively.

Regarding `Nc1nc2cc(C(=O)N(Cc3ncc(C4CC4)cc3F)C3CCCC3)[nH]c2c2c1COC2` [Example 65, 5-amino-N-cyclopentyl-N-((5-cyclopropyl-3-fluoropyridin-2-yl)methyl)-6,8-dihydro-1H-furo[3,4-d]pyrrolo[3,2-b]pyridine-2-carboxamide], the IC50 in test [1] came to 17 nM; in test [2], 2460 nM.

Consider `CC(C)N(Cc1ncc(C2CC2)cc1F)C(=O)c1cc2nc(N)c3c(c2[nH]1)COC3` [Example 66, 5-amino-N-((5-cyclopropyl-3-fluoropyridin-2-yl)methyl)-N-isopropyl-6,8-dihydro-1H-furo[3,4-d]pyrrolo[3,2-b]pyridine-2-carboxamide], for which the IC50 in test [1] turned out to be 20 nM; in test [2], 2520 nM.

Take `CC[C@@H](C)N(Cc1ncc(C2CC2)cc1F)C(=O)c1cc2nc(N)c3c(c2[nH]1)COC3` [Example 67, (R)-5-amino-N-(sec-butyl)-N-((5-cyclopropyl-3-fluoropyridin-2-yl)methyl)-6,8-dihydro-1H-furo[3,4-d]pyrrolo[3,2-b]pyridine-2-carboxamide]: the IC50 is 4.2 nM in test [1] and 453 nM in test [2].

Regarding `C[C@H]1OCc2c1c(N)nc1cc(C(=O)N(C)[C@@H]3COCc4cc(C(F)(F)F)ccc43)[nH]c21` [Example 68, (R)-5-amino-N,6-dimethyl-N—((S)-7-(trifluoromethyl)isochroman-4-yl)-6,8-dihydro-1H-furo[3,4-d]pyrrolo[3,2-b]pyridine-2-carboxamide], the IC50 is 9 nM in test [1] and 1690 nM in test [2].

As for `Nc1nc2cc(C(=O)N(Cc3ncc(C4CC4)cc3F)C3CCC3)[nH]c2c2c1COC2` [Example 69, 5-amino-N-cyclobutyl-N-((5-cyclopropyl-3-fluoropyridin-2-yl)methyl)-6,8-dihydro-1H-furo[3,4-d]pyrrolo[3,2-b]pyridine-2-carboxamide], the IC50 in test [1] is 26 nM; in test [2], 2700 nM.

On to `CC(C)[C@@H](C)N(Cc1ncc(C2CC2)cc1F)C(=O)c1cc2nc(N)c3c(c2[nH]1)COC3` [Example 70, (R)-5-amino-N-((5-cyclopropyl-3-fluoropyridin-2-yl)methyl)-N-(3-methylbutan-2-yl)-6,8-dihydro-1H-furo[3,4-d]pyrrolo[3,2-b]pyridine-2-carboxamide], for which the IC50 stood at 12 nM in test [1] and 1180 nM in test [2].

The record behind these values is patent US20240368177A1, “5-AMINO-6,8-DIHYDRO-1H-FURO[3,4-d]PYRROLO[3,2-b]PYRIDINE-2-CARBOXAMIDE DERIVATIVES AS MTA-COOPERATIVE INHIBITORS OF PRMT5” (BeiGene Switzerland GmbH, priority 2023, published 2024).
